Measurements reported in article PMC6268022, “Substituted N-Benzylpyrazine-2-carboxamides: Synthesis and Biological Evaluation ^†” (Molecules, 2012).
pIC50: −log10 of the molar value. Converted amounts (≈) assume the structure as drawn. “And” between values parts separate entries of the source, which are not always exact repeats. Equal values may be shown once. Read-outs that look alike come from different tables or passages of the source.

Experiments:
[1] = tested on: photosynthetic electron transport (PET) in spinach chloroplasts; experiment: Inhibition of photosynthetic electron transport (oxygen evolution rate) in spinach chloroplasts; assay type: biochemical, Spinacia oleracea L.; conditions: DCPIP photoreduction, pH 7.2
Description: All studied compounds were evaluated for their photosynthetic electron transport (PET) inhibition in spinach chloroplasts, which was reflected in the inhibition of oxygen evolution rate. The photosynthesis-inhibiting activity of the compounds has been expressed as IC50 values. Compounds 4, 5, 7 and 8 were not tested due to their low solubility in tested medium.
Chloroplasts were prepared from spinach (Spinacia oleracea L.) according to Masarovičová and Kráľová [31]. The inhibition of photosynthetic electron transport (PET) in spinach chloroplasts was determined spectrophotometrically (Genesys 6, Thermo Scientific, Madison, WI, USA) using an artificial electron acceptor 2,6-dichlorophenol-indophenol (DCPIP) according to Kráľová et al. and the rate of photosynthetic electron transport (PET) was monitored as a photo-reduction of DCPIP. The measurements were carried out in a phosphate buffer (0.02 mol/L, pH 7.2) containing sucrose (0.4 mol/L), MgCl2 (0.005 mol/L) and NaCl (0.015 mol/L). The chlorophyll content was 30 mg/L in these experiments and the samples were irradiated (~100 W/m^2) from a 10 cm distance with halogen lamp (250 W) using a 4 cm water filter to prevent warming of the samples (suspension temperature 22 °C). The studied compounds were dissolved in DMSO due to their limited water solubility. […] The inhibitory efficiency of the studied compounds was expressed as the IC50 values, i.e., molar concentration of the compounds causing 50% decrease in the oxygen evolution relative to the untreated control.

[2] = tested on: M. tuberculosis H37Rv CNCTC My 331/88; experiment: In vitro antimycobacterial microdilution panel method; assay type: cell-based; conditions: Mycobacterium tuberculosis, 336 h
M. avium CNCTC My 80/72 = experiment: as above; assay type: cell-based; conditions: Mycobacterium avium, 336 h; CNCTC My 80/72, pH 6.0, 14 days
M. avium CNCTC My 152/73 = experiment: as above; assay type: cell-based; conditions: Mycobacterium avium, 336 h; CNCTC My 152/73, pH 6.0, 14 days
[3] = tested on: M. kansasii CNCTC My 235/80; experiment: as above; assay type: cell-based; conditions: Mycobacterium kansasii, 144 h; CNCTC My 235/80, pH 6.0, 6 days
[4] = tested on: Trichophyton mentagrophytes 445; experiment: In vitro antifungal microdilution broth method; assay type: cell-based; conditions: RPMI 1640 pH 7.0, 35 °C, read-out: TM MIC
Description: The Department of Medical and Biological Sciences at the Faculty of Pharmacy in Hradec Králové, Charles University in Prague, Czech Republic, performed the antifungal susceptibility assays, which was carried out using microdilution broth method. Compounds were dissolved in DMSO and diluted in a twofold manner with RPMI 1640 medium with glutamine buffered to pH 7.0 (3-morpholinopropane-1-sulfonic acid). […] Drug-free controls were included. […] The MICs were determined after 24 and 48 h, respectively after 72 and 120 h for Trichophyton mentagrophytes (TM), of static incubation in dark at 35 °C. Tested species: […]

[5] = HPLC lipophilicity determination (capacity factor k / log k); conditions: RP-HPLC, C18, MeOH 70%/H2O 30%, 30 °C
Description: The separation process was controlled by Agilent ChemStation, version B.04.02 extended by spectral module (Agilent Technologies Inc.). A solution of MeOH (HPLC grade, 70%) with H2O (HPLC-Milli-Q Grade, 30%) was used as mobile phase. The total flow of the column was 1.0 mL/min, injection 20 µL, column temperature 30 °C. 210 nm as detection wavelength and 270 nm as monitor wavelength were chosen. The KI methanol solution was used for the dead time (TD) determination. Retention times (TR) of synthesized compounds were measured in minutes. The capacity factors k were calculated using Microsoft Excel according to formula k = (TR − TD)/TD, where TR is the retention time of the solute and TD denotes the dead time obtained via an unretained analyte. Log k, calculated from the capacity factor k, is used as the lipophilicity index converted to log P scale.

[6] = tested on: photosynthetic electron transport (PET) in spinach chloroplasts; set-up: method as in earlier work; conditions: standard, read-out: IC50 (PET inhibition); cited from earlier work
[7] = MIC with respect to molecular weight, Šula's medium pH 6.0, 14 days, read-out: MIC M. tuberculosis H37Rv (value in parentheses)
[8] = Šula's medium pH 6.0, 37 °C, 14 days, read-out: MIC M. tuberculosis H37Rv
[9] = Trichophyton mentagrophytes, 445, 72 h, pH 7, evaluated after 72 h
[10] = Trichophyton mentagrophytes, 445, 120 h, pH 7, evaluated after 120 h

Structure (SMILES) | pIC50 [1] | MIC [2, 7] [µM] | MIC [2, 8] [µg/mL] | MIC (M. avium CNCTC My 80/72) [µg/mL] | MIC (M. avium CNCTC My 152/73) [µg/mL] | MIC [3] [µg/mL] | MIC [4, 9] [µM] | MIC [4, 10] [µM] | log k [5] | pIC50 [6]
CC(C)(C)c1ncc(C(=O)NCc2ccccc2)nc1Cl [Compound 9, N-Benzyl-5-tert-butyl-6-chloropyrazine-2-carboxamide] | 5.13 | 82 | 25 | 25 (≈ 82.3 µM) | 50 (≈ 165 µM) | 100 (≈ 329 µM) | 250 (≈ 75.9 µg/mL) | 500 (≈ 152 µg/mL) | 1.1215 | 
CC(C)(C)c1ncc(C(=O)NCc2cccc(C(F)(F)F)c2)nc1Cl [Compound 10, 5-tert-Butyl-6-chloro-N-(3-trifluoromethylbenzyl)pyrazine-2-carboxamide] | 4.44 | 16 | 6.25 | 25 (≈ 67.2 µM) | 25 (≈ 67.2 µM) | 25 (≈ 67.2 µM) | 250 (≈ 92.9 µg/mL) | 250 (≈ 92.9 µg/mL) | 1.3638 | 
CC(C)(C)c1ncc(C(=O)NCc2ccc(Cl)cc2)nc1Cl [Compound 11, 5-tert-Butyl-6-chloro-N-(4-chlorobenzyl)pyrazine-2-carboxamide] | 4.87 | 36 | 12.5 | 50 (≈ 148 µM) | 50 (≈ 148 µM) | 50 (≈ 148 µM) | 250 (≈ 84.6 µg/mL) | 500 (≈ 169 µg/mL) | 1.3511 | 
COc1ccc(CNC(=O)c2cnc(C(C)(C)C)c(Cl)n2)cc1 [Compound 12, 5-tert-Butyl-6-chloro-N-(4-methoxybenzyl)pyrazine-2-carboxamide] | 3.92 | 18 | 6.25 | 12.5 (≈ 37.4 µM) | 6.25 (≈ 18.7 µM) | 3.12 (≈ 9.36 µM) | 250 (≈ 83.5 µg/mL) | 500 (≈ 167 µg/mL) | 0.8071 | 
CN(C)C(=O)Nc1ccc(Cl)c(Cl)c1 [DCMU, 3-(3,4-dichlorophenyl)-1,1-dimethylurea] |  |  |  |  |  |  |  |  |  | ~5.72 and 5.72
OC(Cn1cncn1)(Cn1cncn1)c1ccc(F)cc1F [FLU, fluconazole, reference compound] |  |  |  |  |  |  | 1.95 (≈ 0.597 µg/mL) | 3.91 (≈ 1.2 µg/mL) |  | 
NNC(=O)c1ccncc1 [INH, isoniazid, reference compound] |  | 11 | 1.56 | 12.5 to 25 (≈ 91.1 to 182 µM) | 12.5 (≈ 91.1 µM) | 12.5 (≈ 91.1 µM) |  |  |  | 
NC(=O)c1cnccn1 [PZA, pyrazinamide, reference compound] |  | 50 to 101 | 6.25 to 12.5 | > 100 | > 100 | > 100 |  |  |  | 
